# Assay results: paper PMC6595003, “Insights into real-time chemical processes in a calcium sensor protein-directed dynamic library” (Nature Communications, 2019)
# Several values for one entry are separate records, joined by “and”; a condition that tells them apart may be missing. Equal values may be shown once.
# What was measured:
# [1] = biological target: T1, dNCS-1 (Drosophila melanogaster, UniProt Q9VWX8); experiment: Protein-directed DCL, HPLC-MS relative peak area with and without dNCS-1
# T1 construct: made in house; host or cells: E. coli
# T1 sequence (Q9VWX8 1-187): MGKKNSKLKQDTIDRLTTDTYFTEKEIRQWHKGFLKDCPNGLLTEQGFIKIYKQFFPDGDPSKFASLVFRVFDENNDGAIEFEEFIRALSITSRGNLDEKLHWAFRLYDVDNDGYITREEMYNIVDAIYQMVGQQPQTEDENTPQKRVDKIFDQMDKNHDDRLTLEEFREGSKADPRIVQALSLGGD
# Experimental: The reversibility of the DCL was evident, since an identical equilibrium distribution to that shown in Fig. 4a was obtained when two different starting points were employed. The observed degree of amplification was 3b > 3e ≥ 3d > 3a. The precise composition of the DCL (with and without dNCS-1), was assessed by measuring the relative peak area (RPA). Indeed, the normalized change of RPA was used to quantify the protein influence in the final outcome (Supplementary Figs. 9, 10 and Supplementary Tables 1, 2 and 3)[28]. […] Note that compounds 3a–3e can exist as E/Z isomers of the C = N bond. […].
# Aldehyde 1 (1.2 μL, 50 mM, DMSO), the five acylhydrazides 2a–2e (5 × 3.6 μL, 50 mM, DMSO), p-anisidine (1 μL, 12 M, DMSO) and buffer 20 mM Tris, 0.5 M NaCl and 1 mM CaCl2, 1 mM DTT at pH 7.4 (750 μL) in 3.3 % DMSO. The mixture was stabilized in 5 h at 4 °C. HPLC analysis was performed.
# Aldehyde 1 (1.2 μL, 50 mM, DMSO), the five acylhydrazides 2a–2e (5 × 3.6 μL, 50 mM, DMSO), p-anisidine (1 μL, 12 mM, DMSO) and dNCS-1 in buffer 20 mM Tris, 0.5 M NaCl and 1 mM CaCl2, 1 mM DTT at pH 7.4 (66.7 μM, 750 μL, 1 eq.). The experiment is in 3.3% DMSO. The mixture was stabilized for 5 h at 4 °C. Then, dNCS-1 was removed by ultrafiltration using an Amicon Ultra filter (0.5–10 KDa). HPLC analysis was performed and the traces were compared with the blank composition.
# Supplementary Figure 9. Relative Peak Area of the DCL with and without dNCS1. Aldehyde
# 1 (1.2 µL, 50 mM), 2a-e (3.6 µL, 50 mM), catalyst (1 µL, 12 M), dNCS-1:1 [1:1], tris buffer (20
# mM, pH 7.4), 1 mM CaCl2, 0.5 M NaCl, 1 mM DTT, T = 4 °C, 2% DM SO. Mean relative peak
# area (RPA) of each acylhydrazone of the library in the absence (blank) and presence of dNCS-1.
# Error bars indicate standard deviation (SD) over three experiments. The calculation is set by the
# sum of all peak areas to 100% and assigning each peak its percentage. Source data are provided
# R P A N o rm aliz ed V a riation
# Supplementary Figure 10. RPA normalized of variation of DCL with and without dNCS1.
# Aldehyde 1 (1.2 µL, 50 mM), 2a-e (3.6 µL, 50 mM), catalyst (1 µL, 12 M), dNCS-1:1 [1:1], tris
# buffer (20 mM, pH 7.4), 1 mM CaCl2, 0.5 M NaCl, 1 mM DTT, T = 4 °C, 2% DM SO. Error
# bars indicate SD over three experiments. Source data are provided as a Source Data file.
# [2] = commercial drugs; ref 5 (Hou et al., 2004); cited from earlier work
# [3] = Parallel artificial membrane permeability assay (PAMPA-BBB); type: in vitro ADME; conditions: for Pe (10-6 cm s-1) Experimental 1 / Pe (10-6 cm s-1) Experimental 2 / Pe (10-6 cm s-1) Experimental 3: source data; for Papp at 2.5 h: pig, PAMPA-BBB, pH 7.4, 5% DMSO, 2 h 30 min at 25 °C, mean ± SD, read-out: Pe, in vitro permeability
# Description: The PAMPA methodology is a high-throughput technique to predict passive permeability through biological membranes that employs a brain lipid porcine as membrane. […]
# From this equation and following the pattern established in the literature for BBB permeation prediction2 we could classify compounds as CNS + when they present a permeability > 4.50 x 10-6 cm s-1. Source data are provided as a Source Data file. […]
# Parallel artificial membrane permeability assays. Prediction of the brain penetration was evaluated using a parallel artificial membrane permeability assay (PAMPA).4 Ten commercial drugs, phosphate buffer saline solution at pH 7.4 (PBS). DMSO and dodecane were purchased from Sigma, Across organics, Aldrich and Fluka. The porcine […]
# plate was a 96-well filtrate plate (Multiscreen® IP Sterile Plate PDVF membrane, pore […]
# MAIPS4510) and the acceptor plate was an indented 96-well plate (Multiscreen®, catalog no. MAMCS9610) both from Millipore. Filter PDVF […]
# membrane units (diameter 30 mm, pore size 0.45 µm) from Symta were used to filter the samples. A 96-well plate UV reader (Thermoscientific, Multiskan spectrum) was used for the UV measurements.
# [4] = tested on: NCS-1/Ric8a interaction; set-up: method as in PMID 28119500, PMID 29966094; conditions: cited from earlier work
smiles,measurement,setting,value
O=C(N/N=C/c1ccc([N+](=O)[O-])c(O)c1)c1cccs1 [3e],"RPA, Blank DCL",[1]; as fraction of total area,0.3277
same,"RPA, Templated DCL","[1]; as fraction of total area, with dNCS-1",0.4342
same,RPA (%) with protein (templated DCL),[1]; relative peak area in presence of dNCS-1,43.4% and 43.4187%
same,RPA (%) without protein (blank DCL),"[1]; relative peak area, sum of all peak areas set to 100%",32.8% and 32.7742%
same,"RPA (%), Blank DCL",[1]; sheet Supplementary Figure 10,32.8%
same,"RPA (%), Templated DCL","[1]; sheet Supplementary Figure 10, with dNCS-1",43.4%
CC(=O)Oc1ccccc1C(=O)O [Aspirin],Experimental log S,[2],-1.72
CCOC(=O)c1ccc(N)cc1 [Benzocaine],Experimental log S,[2],-2.32
Cn1c(=O)c2c(ncn2C)n(C)c1=O [Caffeine],Pe (10-6 cm s-1) Experimental 1,[3],1.3 10-6 cm s-1
same,Pe (10-6 cm s-1) Experimental 2,[3],0.87 10-6 cm s-1
same,Pe (10-6 cm s-1) Experimental 3,[3],1.70 10-6 cm s-1
CCOP(=S)(OCC)Oc1nc(Cl)c(Cl)cc1Cl [Chlorpyriphos],Experimental log S,[2],-5.49
CNCCCN1c2ccccc2CCc2ccccc21 [Desipramine],Pe (10-6 cm s-1) Experimental 2,[3],16.20 10-6 cm s-1
same,Pe (10-6 cm s-1) Experimental 3,[3],13.70 10-6 cm s-1
CN(C)C(=O)Nc1ccc(Cl)c(Cl)c1 [Diuron],Experimental log S,[2],-3.80
CCn1cc(C(=O)O)c(=O)c2cc(F)c(N3CCNCC3)nc21 [Enoxacin],Pe (10-6 cm s-1) Experimental 1,[3],1.4 10-6 cm s-1
same,Pe (10-6 cm s-1) Experimental 2,[3],1.30 10-6 cm s-1
same,Pe (10-6 cm s-1) Experimental 3,[3],1.47 10-6 cm s-1
O=C(CN1CCCCC1)NN1c2ccccc2Sc2ccccc21 [FD44],reported inhibition of the NCS-1/Ric8a interaction,[4],strong
O=C(CC(c1ccccc1)c1ccccc1)Nc1nc2ccccc2s1 [IGS-1.76],reported inhibition of the NCS-1/Ric8a interaction,[4],strong
Cl[C@H]1[C@H](Cl)[C@@H](Cl)[C@@H](Cl)[C@H](Cl)[C@H]1Cl [Lindane],Experimental log S,[2],-4.64
CCOC(=O)CC(SP(=S)(OC)OC)C(=O)OCC (stereo not shown) [Malathion],Experimental log S,[2],-3.37
O=C1CN(/N=C/c2ccc([N+](=O)[O-])o2)C(=O)N1 [Nitrofurantoin],Experimental log S,[2],-3.47
CCOP(=S)(OCC)Oc1ccc([N+](=O)[O-])cc1 [Parathion],Experimental log S,[2],-4.66
O=C1OC(c2ccc(O)cc2)(c2ccc(O)cc2)c2ccccc21 [Phenolpthalein],Experimental log S,[2],-2.60
O=C1NC(=O)C(c2ccccc2)(c2ccccc2)N1 [Phenytoin],Experimental log S,[2],-3.99
CN1C(C(=O)Nc2ccccn2)=C(O)c2ccccc2S1(=O)=O [Piroxicam],Papp at 2.5 h,[3],1.3 ± 0.2 ×10⁻⁶ cm/s
same,Pe (10-6 cm s-1) Experimental 1,[3],1.3 10-6 cm s-1
same,Pe (10-6 cm s-1) Experimental 2,[3],1.16 10-6 cm s-1
same,Pe (10-6 cm s-1) Experimental 3,[3],1.44 10-6 cm s-1
CN(C)CCCN1c2ccccc2Sc2ccccc21 [Promazine],Papp at 2.5 h,[3],9.5 ± 0.6 ×10⁻⁶ cm/s
same,Pe (10-6 cm s-1) Experimental 1,[3],9.5 10-6 cm s-1
same,Pe (10-6 cm s-1) Experimental 2,[3],9.04 10-6 cm s-1
same,Pe (10-6 cm s-1) Experimental 3,[3],9.94 10-6 cm s-1
